Measured values reported in patent publication US10875875B2, “Propionic acid derivatives and methods of use thereof” (Aviara Pharmaceuticals, Inc., priority 2017, dated 2020).

Experiments:
[1] = molecular target: T1, α4β7 (Homo sapiens, UniProt P13612+P26010); assay: α4β7 integrin inhibition, IC50; format: binding
T1 sequence (P13612 34-1032): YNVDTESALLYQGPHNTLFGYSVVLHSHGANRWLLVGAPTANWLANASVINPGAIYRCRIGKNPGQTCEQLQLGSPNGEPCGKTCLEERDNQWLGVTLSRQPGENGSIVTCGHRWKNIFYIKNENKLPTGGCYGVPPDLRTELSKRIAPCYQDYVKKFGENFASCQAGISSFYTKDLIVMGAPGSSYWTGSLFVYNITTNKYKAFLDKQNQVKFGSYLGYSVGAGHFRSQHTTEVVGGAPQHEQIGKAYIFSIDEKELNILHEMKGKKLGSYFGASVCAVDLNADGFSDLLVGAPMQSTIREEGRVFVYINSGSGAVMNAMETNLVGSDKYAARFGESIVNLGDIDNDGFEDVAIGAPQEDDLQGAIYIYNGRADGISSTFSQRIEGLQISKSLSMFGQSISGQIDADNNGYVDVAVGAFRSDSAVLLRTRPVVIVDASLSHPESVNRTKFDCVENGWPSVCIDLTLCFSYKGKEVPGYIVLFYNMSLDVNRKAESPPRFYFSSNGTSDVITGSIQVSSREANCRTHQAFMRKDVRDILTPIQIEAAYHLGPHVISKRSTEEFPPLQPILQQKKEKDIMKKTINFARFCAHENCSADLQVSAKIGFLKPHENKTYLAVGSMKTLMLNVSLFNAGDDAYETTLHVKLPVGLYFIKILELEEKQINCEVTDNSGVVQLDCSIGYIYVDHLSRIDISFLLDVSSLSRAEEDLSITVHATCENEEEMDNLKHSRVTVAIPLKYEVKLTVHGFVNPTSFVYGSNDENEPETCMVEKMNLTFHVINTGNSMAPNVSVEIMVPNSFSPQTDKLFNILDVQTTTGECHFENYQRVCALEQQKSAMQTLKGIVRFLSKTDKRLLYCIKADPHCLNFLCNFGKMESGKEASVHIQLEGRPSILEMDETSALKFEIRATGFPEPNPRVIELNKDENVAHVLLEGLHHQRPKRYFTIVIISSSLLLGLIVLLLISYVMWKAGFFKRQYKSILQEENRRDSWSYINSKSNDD
T1 sequence (P26010 20-798): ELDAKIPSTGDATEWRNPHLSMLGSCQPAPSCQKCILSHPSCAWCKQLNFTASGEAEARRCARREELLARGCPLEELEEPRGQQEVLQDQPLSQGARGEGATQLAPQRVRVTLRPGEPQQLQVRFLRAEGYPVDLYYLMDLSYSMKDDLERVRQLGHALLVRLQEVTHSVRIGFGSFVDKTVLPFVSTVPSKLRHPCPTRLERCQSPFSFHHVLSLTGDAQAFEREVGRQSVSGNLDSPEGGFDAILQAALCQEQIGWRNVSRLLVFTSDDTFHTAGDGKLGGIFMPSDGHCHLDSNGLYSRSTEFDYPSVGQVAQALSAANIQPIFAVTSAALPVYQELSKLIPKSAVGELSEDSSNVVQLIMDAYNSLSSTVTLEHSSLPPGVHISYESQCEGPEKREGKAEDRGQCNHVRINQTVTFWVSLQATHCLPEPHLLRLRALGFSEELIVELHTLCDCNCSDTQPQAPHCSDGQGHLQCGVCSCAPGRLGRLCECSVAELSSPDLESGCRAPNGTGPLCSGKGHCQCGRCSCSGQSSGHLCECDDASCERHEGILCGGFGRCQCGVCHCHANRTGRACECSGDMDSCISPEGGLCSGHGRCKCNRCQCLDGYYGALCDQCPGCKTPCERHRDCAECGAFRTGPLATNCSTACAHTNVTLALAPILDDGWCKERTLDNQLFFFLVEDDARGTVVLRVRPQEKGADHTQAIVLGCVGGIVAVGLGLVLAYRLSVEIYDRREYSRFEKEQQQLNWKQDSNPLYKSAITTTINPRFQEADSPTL

[2] = molecular target: α4β1 (Homo sapiens, UniProt P05556+P13612); assay: α4β1 integrin inhibition, IC50; format: binding; settings: read-out: α4β1 IC50
Sequence of α4β1 (P05556 21-798, one chain of several): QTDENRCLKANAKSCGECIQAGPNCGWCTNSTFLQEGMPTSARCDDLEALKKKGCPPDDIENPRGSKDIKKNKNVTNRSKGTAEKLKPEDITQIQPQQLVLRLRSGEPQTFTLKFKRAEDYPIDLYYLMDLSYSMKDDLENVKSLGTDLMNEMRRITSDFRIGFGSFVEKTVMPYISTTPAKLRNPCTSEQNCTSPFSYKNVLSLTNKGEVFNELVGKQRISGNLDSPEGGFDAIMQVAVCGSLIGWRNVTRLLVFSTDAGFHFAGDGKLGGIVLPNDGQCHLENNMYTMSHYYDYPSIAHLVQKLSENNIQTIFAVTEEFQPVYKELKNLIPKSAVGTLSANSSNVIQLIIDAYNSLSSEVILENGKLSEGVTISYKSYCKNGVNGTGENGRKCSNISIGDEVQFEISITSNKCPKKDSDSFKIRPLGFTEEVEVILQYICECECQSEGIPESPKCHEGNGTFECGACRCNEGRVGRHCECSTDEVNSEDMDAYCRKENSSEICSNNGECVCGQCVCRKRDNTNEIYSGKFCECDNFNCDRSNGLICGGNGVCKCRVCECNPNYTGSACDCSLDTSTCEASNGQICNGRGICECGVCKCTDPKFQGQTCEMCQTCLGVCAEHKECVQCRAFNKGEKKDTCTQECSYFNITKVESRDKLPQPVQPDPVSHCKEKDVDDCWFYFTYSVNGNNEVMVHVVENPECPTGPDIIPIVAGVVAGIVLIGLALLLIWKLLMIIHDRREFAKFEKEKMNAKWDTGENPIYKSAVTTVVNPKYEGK

SMILES	IC50 [1]	IC50 [2]
Cc1cn(C)c(=O)c(NC(=O)N[C@@H](CC(=O)O)c2cccc(-c3c(C)cccc3C)c2)c1O [1-470, sodium (S)-3-(3-(1,5-dimethyl-4-oxido-2-oxo-1,2-dihydropyridin-3-yl)ureido)-3-(2′,6′-dimethylbiphenyl-3-yl)propanoate]	< 0.2 µM	< 0.02 µM
Cc1cc(O)c(NC(=O)N[C@@H](CC(=O)O)c2cccc(-c3ccc(F)cc3F)c2)c(=O)n1C [1-487, sodium (S)-3-(2′,4′-difluorobiphenyl-3-yl)-3-(3-(1,6-dimethyl-4-oxido-2-oxo-1,2-dihydropyridin-3-yl)ureido)propanoate]	> 0.2 µM	< 0.02 µM
Cn1ccc(O)c(NC(=O)N[C@@H](CC(=O)O)c2cccc(-c3ccc(F)cc3F)c2)c1=O [1-488, sodium (S)-3-(2′,4′-difluorobiphenyl-3-yl)-3-(3-(1-methyl-4-oxido-2-oxo-1,2-dihydropyridin-3-yl)ureido)propanoate]	> 0.2 µM	< 0.02 µM
Cc1cccc(C)c1-c1cccc([C@H](CC(=O)O)NC(=O)Nc2c(O)ccn(C)c2=O)c1 [1-502, sodium (S)-3-(2′,6′-dimethylbiphenyl-3-yl)-3-(3-(1-methyl-4-oxido-2-oxo-1,2-dihydropyridin-3-yl)ureido)propanoate]	< 0.2 µM	< 0.02 µM
COc1cccc(-c2cc([C@H](CC(=O)O)NC(=O)Nc3c(O)c(C)cn(C)c3=O)ccc2OC)c1 [1-527, sodium (S)-3-(3′,6-dimethoxybiphenyl-3-yl)-3-(3-(1,5-dimethyl-4-oxido-2-oxo-1,2-dihydropyridin-3-yl)ureido)propanoate]	> 0.2 µM	< 0.02 µM
COc1ccc([C@H](CC(=O)O)NC(=O)Nc2c(O)ccn(C)c2=O)cc1-c1c(C)cccc1C [1-533, sodium (S)-3-(6-methoxy-2′,6′-dimethylbiphenyl-3-yl)-3-(3-(1-methyl-4-oxido-2-oxo-1,2-dihydropyridin-3-yl)ureido)propanoate]	< 0.2 µM	< 0.02 µM
Cn1ccc(O)c(NC(=O)N[C@@H](CC(=O)O)c2cccc(-c3c(Cl)cccc3Cl)c2)c1=O [1-537, sodium (S)-3-(2′,6′-dichlorobiphenyl-3-yl)-3-(3-(1-methyl-4-oxido-2-oxo-1,2-dihydropyridin-3-yl)ureido)propanoate]	< 0.2 µM	< 0.02 µM
Cc1cccc(C)c1-c1cccc([C@H](CC(=O)O)NC(=O)Nc2c(O)cc(C)n(C)c2=O)c1 [1-550, sodium (S)-3-(3-(1,6-dimethyl-4-oxido-2-oxo-1,2-dihydropyridin-3-yl)ureido)-3-(2′,6′-dimethylbiphenyl-3-yl)propanoate]	< 0.2 µM	< 0.02 µM
Cc1noc(C)c1-c1cccc([C@H](CC(=O)O)NC(=O)Nc2c(O)ccn(C)c2=O)c1 [1-560, sodium (S)-3-(3-(3,5-dimethylisoxazol-4-yl)phenyl)-3-(3-(1-methyl-4-oxido-2-oxo-1,2-dihydropyridin-3-yl)ureido)propanoate]	> 0.2 µM	< 0.02 µM
Cc1cccc(C)c1-c1cc([C@H](CC(=O)O)NC(=O)Nc2c(O)ccn(C)c2=O)ccc1F [1-561, sodium (S)-3-(6-fluoro-2′,6′-dimethylbiphenyl-3-yl)-3-(3-(1-methyl-4-oxido-2-oxo-1,2-dihydropyridin-3-yl)ureido)propanoate]	< 0.02 µM	< 0.02 µM
Cn1ccc(O)c(NC(=O)N[C@@H](CC(=O)O)c2ccc(-c3ccc(F)cc3F)s2)c1=O [1-562, sodium (S)-3-(5-(2,4-difluorophenyl)thiophen-2-yl)-3-(3-(1-methyl-4-oxido-2-oxo-1,2-dihydropyridin-3-yl)ureido)propanoate]	> 0.2 µM	< 0.02 µM
Cc1cc(-c2cccc(OC(F)(F)F)c2)cc([C@H](CC(=O)O)NC(=O)Nc2c(O)ccn(C)c2=O)c1 [1-572, sodium (S)-3-(5-methyl-3′-(trifluoromethoxy)biphenyl-3-yl)-3-(3-(1-methyl-4-oxido-2-oxo-1,2-dihydropyridin-3-yl)ureido)propanoate]	> 0.2 µM	< 0.02 µM
COc1cc(-c2c(C)cccc2C)cc([C@H](CC(=O)O)NC(=O)Nc2c(O)ccn(C)c2=O)c1 [1-579, sodium (S)-3-(5-methoxy-2′,6′-dimethylbiphenyl-3-yl)-3-(3-(1-methyl-4-oxido-2-oxo-1,2-dihydropyridin-3-yl)ureido)propanoate]	< 0.02 µM	< 0.02 µM
COc1cc(-c2c(C)cccc2C)cc([C@H](CC(=O)O)NC(=O)Nc2c(O)cc(C)n(C)c2=O)c1 [1-580, sodium (S)-3-(3-(1,6-dimethyl-4-oxido-2-oxo-1,2-dihydropyridin-3-yl)ureido)-3-(5-methoxy-2′,6′-dimethylbiphenyl-3-yl)propanoate]	< 0.02 µM	< 0.02 µM
COc1cccc(-c2cc(C)cc([C@H](CC(=O)O)NC(=O)Nc3c(O)ccn(C)c3=O)c2)c1 [1-582, sodium (S)-3-(3′-methoxy-5-methylbiphenyl-3-yl)-3-(3-(1-methyl-4-oxido-2-oxo-1,2-dihydropyridin-3-yl)ureido)propanoate]	< 0.2 µM	< 0.02 µM
Cc1cccc(C)c1-c1cccc([C@H](CC(=O)O)NC(=O)Nc2c(O)cc3n(c2=O)CCC3)c1 [1-583, sodium (S)-3-(2′,6′-dimethylbiphenyl-3-yl)-3-(3-(7-oxido-5-oxo-1,2,3,5-tetrahydroindolizin-6-yl)ureido)propanoate]	< 0.02 µM	< 0.02 µM
Cn1ccc(O)c(NC(=O)N[C@@H](CC(=O)O)c2cccc(-c3ccccn3)c2)c1=O [1-639, sodium (S)-3-(3-(1-methyl-4-oxido-2-oxo-1,2-dihydropyridin-3-yl)ureido)-3-(3-(pyridin-2-yl)phenyl)propanoate]	–	< 0.02 µM
COc1ccc(-c2cccc([C@H](CC(=O)O)NC(=O)Nc3c(O)ccn(C)c3=O)c2)nn1 [1-640, sodium (S)-3-(3-(6-methoxypyridazin-3-yl)phenyl)-3-(3-(1-methyl-4-oxido-2-oxo-1,2-dihydropyridin-3-yl)ureido)propanoate]	–	< 0.02 µM
Cn1ccc(O)c(NC(=O)N[C@@H](CC(=O)O)c2cncc(-c3ccccc3)c2)c1=O [1-641, sodium (S)-3-(3-(1-methyl-4-oxido-2-oxo-1,2-dihydropyridin-3-yl)ureido)-3-(5-phenylpyridin-3-yl)propanoate]	–	< 0.02 µM
Cc1cn(C)c(=O)c(NC(=O)N[C@@H](CC(=O)O)c2ccc(-c3ccccc3)cc2)c1O [1-643, sodium (S)-3-(biphenyl-4-yl)-3-(3-(1,5-dimethyl-4-oxido-2-oxo-1,2-dihydropyridin-3-yl)ureido)propanoate]	–	< 0.2 µM
COc1ccc(-c2cccc([C@H](CC(=O)O)NC(=O)Nc3c(O)c(C)cn(C)c3=O)c2)cc1 [1-645, sodium (S)-3-(3-(1,5-dimethyl-4-oxido-2-oxo-1,2-dihydropyridin-3-yl)ureido)-3-(4′-methoxybiphenyl-3-yl)propanoate]	–	< 0.2 µM
Cn1ccc(O)c(NC(=O)N[C@@H](CC(=O)O)c2cccc(-c3cnccn3)c2)c1=O [15-2, sodium (S)-3-(3-(1-methyl-4-oxido-2-oxo-1,2-dihydropyridin-3-yl)ureido)-3-(3-(pyrazin-2-yl)phenyl)propanoate]	–	< 0.02 µM
COc1cccc(-c2cccc([C@H](CC(=O)O)NC(=O)Nc3c(O)ccn(C)c3=O)c2)n1 [sodium (S)-3-(3-(6-methoxypyridin-2-yl)phenyl)-3-(3-(1-methyl-4-oxido-2-oxo-1,2-dihydropyridin-3-yl)ureido)propanoate]	–	< 0.02 µM
